Data from US5866537A, “Pharmaceutical and/or dietetic compositions with antioxidant activity containing carnosine or derivatives and branched amino acids” (Farmila-Farmaceutici Milano S.R.L., priority 1995, dated 1999).
Where a name gives a salt, the structure may show the parent alone.

Experiments:
Type in all cases: in vivo
[1] = tested on: lipoperoxides content in the liver; test: lipoperoxides content in liver (malonyldialdehyde, Yagi procedure) of rats on hyperlipidemizing and hypercholesterolemizing diet; details: male rats, solution as ad libitum drink; for percent variation compared with the control: liver lipoperoxides, 20 days diet; for malonyldialdehyde nmoles/g. of fresh tissue: liver, 20 days hyperlipidemizing and hypercholesterolemizing diet
Experimental: (§1) In order to study the pharmacological and/or dietetic characteristics of the compositions according to the present invention, tests were carried out to evaluate the following effects in rats subjected to an ipovitaminic, hyperlipidemizing and hypercholesterolemizing diet (which is known to be capable of promoting the tissue and plasma peroxidation processes):
2°) effect of the compositions on the lipoperoxides hepatic content (measured as malonyldialdehyde nmoles/g)
(§2) 36 Male rats weighing 180-200 g were used.
(§3) The animals were subjected for 20 days to a standard hyperlipidemizing and hypercolesterolemizing diet consisting of: 20% caseine, a 3.5% mixture of oligoelements and mineral salts, a 0.1% mixture of vitamins, 0.2% choline bitartrate, 2% cellulose powder, 0.5% chloesterol, 0.25. sodium cholate, 62.44% saccharose and 10.9% lard. During that time, the animals were divided into in 6 groups which received as an "ad libitum" available drink:
(§4) 1° group: control (only water)
(§5) 2° group: Test A (a 0.75% CARNOSINE aqueous solution)
(§6) 3° group: Test B (a 0.25% CARNITINE aqueous solution)
(§7) At end of the test the animals were killed to take both blood samples and the various organs (liver, brain, and heart) on which the lipoperoxides content was evaluated dosing malonyldialdehyde, according to the procedure by Yagi (YAGI K, (1982), in "Lipid peroxides in biology and medicine", Academic Press, New York, pp. 324-40).

[2] = tested on: lipoperoxides content in the heart; test: lipoperoxides content in heart (malonyldialdehyde, Yagi procedure) of rats on hyperlipidemizing and hypercholesterolemizing diet; details: male rats, solution as ad libitum drink; for percent variation compared with the control: heart lipoperoxides, 20 days diet; for malonyldialdehyde nmoles/g. of fresh tissue: heart, 20 days hyperlipidemizing and hypercholesterolemizing diet
Experimental: as §1
4°) effect of the compositions on the lipoperoxides content in the heart (measured as malonyldialdehyde nmoles/g).
as §2, §3, §4, §5, §6, §7

[3] = tested on: lipoperoxides content in the plasma; test: lipoperoxides content in plasma (malonyldialdehyde, Yagi procedure) of rats on hyperlipidemizing and hypercholesterolemizing diet; details: male rats, solution as ad libitum drink; for percent variation compared with the control: plasma lipoperoxides, 20 days diet; for malonyldialdehyde: plasma, 20 days hyperlipidemizing and hypercholesterolemizing diet
Experimental: as §1
1°) effect of the compositions on the lipoperoxides […] content (measured as malonildialdehye nmoles/ml)
as §2, §3, §4, §5, §6, §7

[4] = tested on: lipoperoxides content in brain; test: lipoperoxides content in brain (malonyldialdehyde, Yagi procedure) of rats on hyperlipidemizing and hypercholesterolemizing diet; details: male rats, solution as ad libitum drink; for percent variation compared with the control: brain lipoperoxides, 20 days diet; for malonyldialdehyde nmoles/g. of fresh tissue: brain, 20 days hyperlipidemizing and hypercholesterolemizing diet
Experimental: 3°) effect of the compositions on the lipoperoxides cerebral content (measured as malonyldialdehyde nmoles/g)
as §2, §3, §4, §5, §6, §7

Row | SMILES | percent variation compared with the control [1] | malonyldialdehyde nmoles/g. of fresh tissue [1] | percent variation compared with the control [2] | percent variation compared with the control ([2]; listed as carnosine) [%] | malonyldialdehyde nmoles/g. of fresh tissue [2] | percent variation compared with the control [3] | malonyldialdehyde [3] [nmol/mL] | percent variation compared with the control [4] | malonyldialdehyde nmoles/g. of fresh tissue [4]
1 | NCCC(=O)N[C@@H](Cc1c[nH]cn1)C(=O)O [Test A, β-alanyl-L-histidine] | -9.5% | 39 ± 8 nmoles/g. of fresh tissue | -20.0% | -20 | 36 ± 7 nmoles/g. of fresh tissue | -14.2% | 3.6 ± 0.6 | -12.7% | 89 ± 7 nmoles/g. of fresh tissue
2 | C[N+](C)(C)CC(O)CC(=O)[O-] (centres unmarked) [Test B, 3-carboxy-2-hydroxy-N,N,N-trimethyl-1-propanamine inner salt] | +2.3% | 43 ± 6 nmoles/g. of fresh tissue | no changes compared with the controls | – | 45 ± 4 nmoles/g. of fresh tissue | no effects | 4.2 ± 0.8 | +3.9% | 106 ± 5 nmoles/g. of fresh tissue
